In patent USRE43327E1, “Hydrophobic polyamine analogs and methods for their use” (Aminex Therapeutics, Inc., priority 2001, dated 2012):
Read-outs that look alike come from different tables or passages of the source.

How the values were obtained:
Format in all cases: cell-based
PC-3 [1] = experiment: Growth inhibition assay, PA alone, PC-3; conditions: PA alone (no DFMO), six days, repeat determinations, read-out: Cell Line IC50 PC-3
Procedure: (§1) Medias were obtained from Mediatech, Inc. (Herdon, Va.) and serums from Gibco BRL (Gaithersburg, Md.). 50 U/ml penicillin, 50 μg/ml streptomycin and 2 mM L-glutamine (all from Bio Whittaker, Walkersville, Md.) were included in all cultures. […] When cells were cultured with polyamines or ORI compounds, 1 mM aminoguanidine (AG; Sigma) was included to inhibit serum amine oxidase activity.

[2] = test system: 4 cell lines (A375, MDA-MB-231, PC-3, SK-OV-3); experiment: Growth inhibition with DFMO, average over 4 cell lines; conditions: with DFMO
Procedure: Cells were plated in 96-well plates such that they would be in log growth for the duration of the assay. The day after plating, PAs were added to the cells, and growth, if any, permitted to continue for six days in the presence of 1 mM AG and 0.5 μM SPD to insure that any growth inhibition was not the result of depletion of external polyamines in the media. At the end of the six days, cell growth was measured by MTS/PMS dye assay (Cell Titer 96 Aqueous Non-Radioactive Cell Proliferation Assay; Promega, Madison, Wis.).

MDA-MB-231 [3] = experiment: Growth inhibition assay, PA alone, MDA-MB-231; conditions: PA alone (no DFMO), six days, repeat determinations, read-out: Cell Line IC50 MDA-MB-231
Procedure: as §1

SK-OV-3 = experiment: Growth inhibition assay, PA alone, SK-OV-3; conditions: PA alone (no DFMO), six days, repeat determinations, read-out: Cell Line IC50 SK-OV-3
Procedure: as §1

A375 = experiment: Growth inhibition assay, PA alone, A375; conditions: PA alone (no DFMO), six days, repeat determinations, read-out: Cell Line IC50 A375
Procedure: as §1

MDA-MB-231 [4] = experiment: Growth inhibition assay (MTS/PMS) with DFMO, MDA-MB-231; conditions: in the presence of DFMO (1-5 mM), 1 mM AG, 0.5 μM SPD, six days; repeat determinations; read-out: Cell Line EC50 MDA-MB-231
Procedure: as §1

PC-3 [5] = experiment: Growth inhibition assay (MTS/PMS) with DFMO, PC-3; conditions: in the presence of DFMO (1-5 mM), 1 mM AG, 0.5 μM SPD, six days; repeat determinations; read-out: Cell Line EC50 PC-3
Procedure: as §1

[6] = Table 3, average over cell lines, read-out: AVG. EC50
[7] = Homo sapiens, MDA-MB-231, 144 h
[8] = Table 1, average EC50 for 4 cell lines, read-out: Ave EC50 value
[9] = Table 2, average EC50 for 4 cell lines, read-out: Ave EC50 value

IC50 (PC-3 [1]; Homo sapiens, PC-3, 144 h) | EC50 [2, 6] | IC50 (MDA-MB-231 [3]; [7]) | IC50 (SK-OV-3; Homo sapiens, SK-OV-3, 144 h) | IC50 (A375; Homo sapiens, A-375, 144 h) | SMILES | further results
> 100 µM | 1.3 µM |  |  |  | CC(C)CC(C)NCCCCC(N)C(=O)NCCCNCCCCNCCCN (single isomer, unassigned) [VA21] | 
> 3 µM | 0.083 µM | > 3 µM | > 3 µM | > 3 µM | CCCCCCCCCCCCCCCCCC(=O)NCCCC[C@@H](N)C(=O)NCCCNCCCCNCCCN [IB2] | 
> 30 µM | 11.2 µM | > 30 µM | > 30 µM | > 30 µM | CCCCCCCC(=O)NCCCC[C@@H](N)C(=O)NCCCNCCCCNCCCN [IB7] | 
> 100 µM | 3.55 µM | > 100 µM | > 100 µM | > 100 µM | CCCCCCC(=O)NCCCC[C@@H](N)C(=O)NCCCNCCCCNCCCN [IB8] | 
> 100 µM | 11.5 µM | > 100 µM | > 100 µM | > 100 µM | CCCCCC(=O)NCCCC[C@@H](N)C(=O)NCCCNCCCCNCCCN [IB9] | 
> 100 µM | 11.7 µM | > 100 µM | > 100 µM | > 100 µM | CCCC(=O)NCCC[C@@H](N)C(=O)NCCCNCCCCNCCCN [IB10] | EC50 [2, 8]: 12 µM
> 30 µM | > 30 µM | > 30 µM | > 30 µM | > 30 µM | NCCCNCCCCNCCCNC(=O)[C@H](N)CCCCNC(=O)c1ccccc1 [IB24] | 
> 30 µM |  |  | > 30 µM | > 30 µM | NCCCNCCCCNCCCNC(=O)[C@H](N)CCCCNC(=O)c1ccco1 [IB25] | 
> 100 µM | 0.955 µM | > 100 µM | > 100 µM |  | NCCCNCCCCNCCCNC(=O)[C@H](N)CCCCNC(=O)c1ccc(-c2ccccc2)cc1 [IB26] | 
> 100 µM |  | > 100 µM | > 70 µM |  | NCCCNCCCCNCCCNC(=O)[C@H](N)CCCCNC(=O)C(c1ccccc1)c1ccccc1 [IB29] | 
 | 1.24 µM | > 100 µM |  |  | NCCCNCCCCNCCCNC(=O)[C@H](N)CCCCNC(=O)C12CC3CC(CC(C3)C1)C2 [IB30] | IC50 (MDA-MB-231 [3]): 84.4 µM
> 100 µM |  | > 100 µM | > 100 µM | > 100 µM | NCCCNCCCCNCCCNC(=O)[C@H](N)CCCNC(=O)C1CCCCC1 [IB32] | EC50 [2, 8]: 3.6 µM
> 100 µM | 8.58 µM | > 100 µM | > 100 µM | > 100 µM | CC(C)C(=O)NCCCC[C@@H](N)C(=O)NCCCNCCCCNCCCN [IB33] | 
> 100 µM | 8.29 µM | > 100 µM | > 100 µM | > 100 µM | CC(C)(C)C(=O)NCCCC[C@@H](N)C(=O)NCCCNCCCCNCCCN [IB34] | 
> 100 µM | 26.9 µM | > 100 µM | > 100 µM | > 100 µM | CC(C)(C)CC(=O)NCCCC[C@@H](N)C(=O)NCCCNCCCCNCCCN [IB36] | 
> 100 µM | 35.1 µM | > 100 µM | 18.3 µM | 19.8 µM | NCCCNCCCCNCCCNC(=O)[C@H](N)CCCCNC(=O)CC1CC2CCC1C2 (stereo partly drawn) [IB37] | 
28 µM | 13.4 µM | 63.9 µM | 60.1 µM | 21.3 µM | CC(C)[C@@H]1CC[C@@H](C)C[C@H]1OCC(=O)NCCCC[C@@H](N)C(=O)NCCCNCCCCNCCCN [IB38] | 
 |  |  |  |  | CC(C)(C)OC(=O)NCCCC[C@@H](N)C(=O)NCCCNCCCCNCCCN [IB41] | EC50 (MDA-MB-231 [4]): 31.9 µM; EC50 (PC-3 [5]): 6730 nM

IC50 (PC-3 [1]; Homo sapiens, PC-3, 144 h) | EC50 [2, 6] | IC50 (MDA-MB-231 [3]; [7]) | IC50 (SK-OV-3; Homo sapiens, SK-OV-3, 144 h) | IC50 (A375; Homo sapiens, A-375, 144 h) | SMILES | further results
 |  |  |  |  | NCCCNCCCCNCCCNC(=O)[C@@H](N)CCCCNS(=O)(=O)c1ccc(CNC(=O)c2ccc(Cl)cc2)s1 [IIA21] | EC50 (MDA-MB-231 [4]): 1.4 µM; EC50 (PC-3 [5]): 460 nM
 | 4.69 µM |  |  |  | NCCCNCCCCNCCCNC(=O)[C@@H](N)CCCCNCC1CCCCC1 [IVA27] | IC50 (MDA-MB-231 [3]): > 100 µM; IC50 (SK-OV-3): > 100 µM; IC50 (PC-3 [1]): > 100 µM; IC50 (A375): > 100 µM
> 100 µM | 2.2 µM | > 100 µM | > 100 µM | > 100 µM | CCCCNCCCC[C@@H](N)C(=O)NCCCNCCCCNCCCN [IVB3] | 
> 100 µM | 0.868 µM | > 100 µM | > 100 µM | > 100 µM | CCCCCCNCCCC[C@@H](N)C(=O)NCCCNCCCCNCCCN [IVB5] | 
> 100 µM | 0.365 µM | > 100 µM | > 100 µM | > 100 µM | CCCCCCCNCCCC[C@@H](N)C(=O)NCCCNCCCCNCCCN [IVB6] | 
> 100 µM | 1.52 µM | > 100 µM | > 100 µM | > 100 µM | CC(C)CCNCCCC[C@@H](N)C(=O)NCCCNCCCCNCCCN [IVB21] | IC50 (A375): 71 µM
> 100 µM | 1.33 µM | > 100 µM | > 100 µM | > 100 µM | CC(C)(C)CCNCCCC[C@@H](N)C(=O)NCCCNCCCCNCCCN [IVB22] | 
> 100 µM | 1.79 µM | > 100 µM | > 100 µM | > 100 µM | CC(C)CNCCCC[C@@H](N)C(=O)NCCCNCCCCNCCCN [IVB23] | 
 | 3.14 µM | > 100 µM | > 100 µM | > 100 µM | CC(C)(C)CNCCCC[C@@H](N)C(=O)NCCCNCCCCNCCCN [IVB24] | IC50 (A375): 84.4 µM
> 100 µM | 0.939 µM | > 100 µM |  |  | NCCCNCCCCNCCCNC(=O)[C@H](N)CCCCNCC1CC2C=CC1C2 (stereo partly drawn) [IVB25] | IC50 (MDA-MB-231 [3]): 61 µM
> 100 µM | 0.414 µM | > 100 µM |  |  | NCCCNCCCCNCCCNC(=O)[C@H](N)CCCCNCC1CCCCC1 [IVB27] | 
17.8 µM | 10.7 µM | 18.9 µM | 19.8 µM | 5.6 µM | CC(C)=CCC[C@H](C)CCNCCCC[C@@H](N)C(=O)NCCCNCCCCNCCCN [IVB28] | 
> 100 µM |  | > 100 µM | 72.9 µM |  | NCCCNCCCCNCCCNC(=O)[C@H](N)CCCCNCc1ccc(-c2ccccc2)cc1 [IVB33] | 
 |  |  |  |  | NCCCNCCCCNCCCNC(=O)[C@H](CCCCNCc1ccccc1)NCc1ccccc1 [IVE30] | EC50 (MDA-MB-231 [4]): 4.2 µM; EC50 (PC-3 [5]): 1700 nM
> 100 µM | 6.98 µM | > 100 µM | > 100 µM | > 100 µM | CC(C)(C)CNCCCC[C@H](N)C(=O)NCCCNCCCCNCCCN [VA22] | EC50 [2, 9]: 2.42 µM; IC50 (A375): 83.5 µM
> 100 µM | 3.91 µM | > 100 µM | > 100 µM | > 100 µM | CCCC(CCC)NCCCC[C@H](N)C(=O)NCCCNCCCCNCCCN [VA26] | 
> 100 µM | 6.45 µM | > 100 µM | > 100 µM | > 100 µM | NCCCNCCCCNCCCNC(=O)[C@@H](N)CCCCNCC12CC3CC(CC(C3)C1)C2 [VA27] | EC50 [2, 9]: 26.8 µM
> 100 µM | 0.905 µM | > 100 µM | > 100 µM | > 100 µM | CC(C)[C@@H]1CC[C@@H](C)CC1NCCCC[C@@H](N)C(=O)NCCCNCCCCNCCCN (stereo partly drawn) [VB28] | IC50 (A375): 64.5 µM
